In paper PMC10017709, “Structural basis of selective cannabinoid CB2 receptor activation” (Nature Communications, 2023):
Values joined by “and” are separate entries in the source; they are usually repeats but may differ in a detail not shown here. Equal values may be shown once.

What was measured:
CB2R-S285^7.39A = CB2R-S285^7.39A (Homo sapiens, UniProt P34972, S285A); test: [35S]GTPγS assay, CB2R S285A mutant; type: biochemical
CB2R-E181^ECL2D = CB2R-E181^ECL2D (Homo sapiens, UniProt P34972, E181D); test: [35S]GTPγS assay, CB2R E181D mutant; type: biochemical
Chain of CB2R-E181^ECL2D (P34972 whole entry E181D): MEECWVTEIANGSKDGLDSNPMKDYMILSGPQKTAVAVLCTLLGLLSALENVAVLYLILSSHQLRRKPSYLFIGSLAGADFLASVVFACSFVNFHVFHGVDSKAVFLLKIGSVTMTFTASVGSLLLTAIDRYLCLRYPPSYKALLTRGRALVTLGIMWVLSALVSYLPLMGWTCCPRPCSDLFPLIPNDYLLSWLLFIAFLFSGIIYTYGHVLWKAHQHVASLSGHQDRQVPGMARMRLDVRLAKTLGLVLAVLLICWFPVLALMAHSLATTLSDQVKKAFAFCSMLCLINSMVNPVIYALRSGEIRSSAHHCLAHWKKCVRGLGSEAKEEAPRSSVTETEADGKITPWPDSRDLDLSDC

CB2R-H95^2.65A = CB2R-H95^2.65A (Homo sapiens, UniProt P34972, H95A); test: [35S]GTPγS assay, CB2R H95A mutant; type: biochemical
Chain of CB2R-H95^2.65A (P34972 whole entry H95A): as the sequence (P34972 whole entry E181D) above, with H95A, D181E counted along it

CB1R D266ECL2E [1] = target: T1, CB1R D266ECL2E (Homo sapiens, UniProt P21554, D266E); test: [3H]CP55,940 displacement assay, CB1R D266E mutant; type: binding
T1 construct: The WT CB1R and CB2R genes were subcloned into vector pcDNA3.1; HA signal peptide (N); expressed in transfected cells; host or cells: HEK293T (transient, membrane homogenates)
T1 sequence (P21554 whole entry D266E): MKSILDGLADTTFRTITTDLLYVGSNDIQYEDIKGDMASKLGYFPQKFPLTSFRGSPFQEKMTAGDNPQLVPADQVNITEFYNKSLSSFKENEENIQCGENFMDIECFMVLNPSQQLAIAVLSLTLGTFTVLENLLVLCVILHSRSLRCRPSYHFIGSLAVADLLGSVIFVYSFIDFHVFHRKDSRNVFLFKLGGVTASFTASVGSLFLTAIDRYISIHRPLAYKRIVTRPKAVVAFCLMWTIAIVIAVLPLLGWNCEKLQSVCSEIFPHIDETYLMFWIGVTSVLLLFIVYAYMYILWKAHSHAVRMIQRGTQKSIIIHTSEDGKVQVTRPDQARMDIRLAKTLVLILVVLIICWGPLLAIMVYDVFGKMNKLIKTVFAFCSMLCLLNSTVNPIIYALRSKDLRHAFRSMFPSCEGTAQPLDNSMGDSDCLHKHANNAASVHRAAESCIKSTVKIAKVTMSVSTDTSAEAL

hCB1R WT [2] = target: T2, hCB1R WT (Homo sapiens, UniProt P21554); test: [35S]GTPγS G protein activation assay, CB1R WT; type: biochemical; conditions: CB1R WT; 10 µM agonist
T2 sequence (P21554 whole entry): as the sequence (P21554 whole entry D266E) above, with E266D counted along it

hCB2R = target: T3, hCB2R (Homo sapiens, UniProt P34972); test: [3H]RO6957022 competition association assay; type: binding
T3 construct: host or cells: CHO-K1 (CHOK1_hCB2bgal, PathHunter), membranes
T3 sequence (P34972 whole entry): as the sequence (P34972 whole entry E181D) above, with D181E counted along it

CB1R I267ECL2L [3] = target: T4, CB1R I267ECL2L (Homo sapiens, UniProt P21554, I267L); test: [35S]GTPγS assay, CB1R I267L mutant; type: biochemical; conditions: CB1R I267L; 10 µM agonist
T4 sequence (P21554 whole entry I267L): as the sequence (P21554 whole entry D266E) above, with E266D, I267L counted along it

CB2R-I110^3.29L = CB2R-I110^3.29L (Homo sapiens, UniProt P34972, I110L); test: [35S]GTPγS assay, CB2R I110L mutant; type: biochemical; conditions: for [35S]GTPγS binding: I1103.29L, individual replicates
Chain of CB2R-I110^3.29L (P34972 whole entry I110L): as the sequence (P34972 whole entry E181D) above, with I110L, D181E counted along it

CB1R-H270^ECL2L [4] = target: T5, CB1R-H270^ECL2L (Homo sapiens, UniProt P21554, H270L); test: [35S]GTPγS assay, CB1R H270L mutant; type: biochemical; conditions: CB1R H270L; 10 µM agonist
T5 sequence (P21554 whole entry H270L): as the sequence (P21554 whole entry D266E) above, with E266D, H270L counted along it

CB2R-Quadruple^TM1,7 = CB2R-Quadruple^TM1,7 (Homo sapiens, UniProt P34972, C40S/K279T/K33Q/V36I); test: [35S]GTPγS assay, CB2R quadruple mutant; type: biochemical
Chain of CB2R-Quadruple^TM1,7 (P34972 whole entry K33Q/V36I/C40S/K279T): as the sequence (P34972 whole entry E181D) above, with K33Q, V36I, C40S, D181E, K279T counted along it

CB2R-V261^6.51L = CB2R-V261^6.51L (Homo sapiens, UniProt P34972, V261L); test: [35S]GTPγS assay, CB2R V261L mutant; type: biochemical; conditions: for [35S]GTPγS binding: V2616.51L, individual replicates
Chain of CB2R-V261^6.51L (P34972 whole entry V261L): as the sequence (P34972 whole entry E181D) above, with D181E, V261L counted along it

CB1R QuadrupleTM1,7 [5] = test: [35S]GTPγS assay, CB1R quadruple mutant; type: biochemical, human; conditions: CB1R Quadruple TM1,7; 10 µM agonist
CB1R-L359^6.51V = CB1R-L359^6.51V (Homo sapiens, UniProt P21554, L359V); test: [3H]CP55,940 displacement assay, CB1R L359V mutant; type: binding
Chain of CB1R-L359^6.51V (P21554 whole entry L359V): as the sequence (P21554 whole entry D266E) above, with E266D, L359V counted along it

CB2R-I110^3.29A = CB2R-I110^3.29A (Homo sapiens, UniProt P34972, I110A); test: [35S]GTPγS assay, CB2R I110A mutant; type: biochemical; conditions: for [35S]GTPγS binding: I1103.29A, individual replicates
Chain of CB2R-I110^3.29A (P34972 whole entry I110A): as the sequence (P34972 whole entry E181D) above, with I110A, D181E counted along it

CB2R-F117^3.36A = CB2R-F117^3.36A (Homo sapiens, UniProt P34972, F117A); test: [35S]GTPγS assay, CB2R F117A mutant; type: biochemical
Chain of CB2R-F117^3.36A (P34972 whole entry F117A): as the sequence (P34972 whole entry E181D) above, with F117A, D181E counted along it

CB1R-H270^ECL2L [6] = target: T5, CB1R-H270^ECL2L; test: [3H]CP55,940 displacement assay, CB1R H270L mutant; type: binding
CB1R I267ECL2L [7] = target: T4, CB1R I267ECL2L; test: [3H]CP55,940 displacement assay, CB1R I267L mutant; type: binding
CB1R QuadrupleTM1,7 [8] = target: T6, CB1R QuadrupleTM1,7 (Homo sapiens, UniProt P21554, I119V/Q116K/S123C/T377K); test: [3H]CP55,940 displacement assay, CB1R quadruple mutant; type: binding
T6 construct: The WT CB1R and CB2R genes were subcloned into vector pcDNA3.1; HA signal peptide (N); expressed in transfected cells; host or cells: HEK293T (transient, membrane homogenates)
T6 sequence (P21554 whole entry Q116K/I119V/S123C/T377K): as the sequence (P21554 whole entry D266E) above, with Q116K, I119V, S123C, E266D, T377K counted along it

CB1R D266ECL2E [9] = target: T1, CB1R D266ECL2E; test: [35S]GTPγS assay, CB1R D266E mutant; type: biochemical; conditions: CB1R D266E; 10 µM agonist
hCB1R WT [10] = target: T2, hCB1R WT; test: [3H]CP55,940 displacement assay, CB1R WT; type: binding
CB2R WT = CB2R WT (Homo sapiens, UniProt P34972); test: [35S]GTPγS G protein activation assay, CB2R WT; type: biochemical; conditions: for Emax: CB2R WT
Chain of CB2R WT (P34972 whole entry): as the sequence (P34972 whole entry E181D) above, with D181E counted along it

CB2R-L182^ECL2I = CB2R-L182^ECL2I (Homo sapiens, UniProt P34972, L182I); test: [35S]GTPγS assay, CB2R L182I mutant; type: biochemical
Chain of CB2R-L182^ECL2I (P34972 whole entry L182I): as the sequence (P34972 whole entry E181D) above, with D181E, L182I counted along it

CB2R-L185^ECL2H = CB2R-L185^ECL2H (Homo sapiens, UniProt P34972, L185H); test: [35S]GTPγS assay, CB2R L185H mutant; type: biochemical
Chain of CB2R-L185^ECL2H (P34972 whole entry L185H): as the sequence (P34972 whole entry E181D) above, with D181E, L185H counted along it

Chain of CB2R-S285^7.39A (P34972 whole entry S285A): as the sequence (P34972 whole entry E181D) above, with D181E, S285A counted along it

`CCCCCCC(C)(C)c1cc(OC)c([C@@H]2C=C(CO)[C@@H]3C[C@H]2C3(C)C)c(OC)c1` [HU308] was tested, and the Emax (CB2R-S285^7.39A) was 65 ± 18%, the “loss in potency compared to WT” value (CB2R-S285^7.39A; S285A mutant vs WT, [35S]GTPγS) was 15 fold and the “Emax (%)” value (CB2R-S285^7.39A; S285A mutant, at 10 µM compared to WT) was “unaffected”. For the same compound, the Emax (CB2R-E181^ECL2D) was 32 ± 3%, the Emax (CB2R-H95^2.65A) was 67 ± 16% and the “Displacement (%) of [3H]CP55,940” value (CB1R D266ECL2E [1]) was 34 ± 5%. The “percentage specific [3H]CP55,940 binding” value (CB1R D266ECL2E [1]) was 73.61 percentage and 56.25 percentage and 67.45 percentage, the Agonist-mediated activation (hCB1R WT [2]) was 0.8 ± 0.0 fold over its basal and the “ET (engagement time)” value (hCB2R) was 143 s and 143 ± 47.9 s. For the same compound, the Agonist-mediated activation (CB1R I267ECL2L [3]) was 0.8 ± 0.0 fold over its basal, the Emax (CB2R-I110^3.29L) was 122 ± 12% and the “[35S]GTPγS binding” value (CB2R-I110^3.29L; log [ligand] (M) -5) was 144.00 percentage of WT and 101.90 percentage of WT and 119.46 percentage of WT. For the same compound, the “[35S]GTPγS binding” value (CB2R-I110^3.29L; log [ligand] (M) -6) was 62.70 percentage of WT and 56.80 percentage of WT and 71.03 percentage of WT, the “[35S]GTPγS binding” value (CB2R-I110^3.29L; log [ligand] (M) -7) was 34.90 percentage of WT and 47.80 percentage of WT and 66.79 percentage of WT and the “[35S]GTPγS binding” value (CB2R-I110^3.29L; log [ligand] (M) -8) was 0.30 percentage of WT and -7.00 percentage of WT and 4.82 percentage of WT. For the same compound, the “[35S]GTPγS binding” value (CB2R-I110^3.29L; log [ligand] (M) -9) was -41.10 percentage of WT and -11.80 percentage of WT and -14.01 percentage of WT, the “[35S]GTPγS binding” value (CB2R-I110^3.29L; log [ligand] (M) -10) was -13.40 percentage of WT and -17.60 percentage of WT and 8.27 percentage of WT and the Agonist-mediated activation (CB1R-H270^ECL2L [4]) was 1.2 ± 0.1 fold over its basal. The Emax (CB2R-Quadruple^TM1,7) was 1 ± 9%, the “activation of CB2R-Quadruple^TM1,7” value (CB2R-Quadruple^TM1,7) was “completely lost their ability to activate” and the Emax (CB2R-V261^6.51L) was 26 ± 7%. For the same compound, the “drop in potency compared to WT” value (CB2R-V261^6.51L; V261L mutant vs WT, [35S]GTPγS) was “more than 120 fold”, the “[35S]GTPγS binding” value (CB2R-V261^6.51L; log [ligand] (M) -5) was 38.70 percentage of WT and 22.83 percentage of WT and 16.52 percentage of WT and the “[35S]GTPγS binding” value (CB2R-V261^6.51L; log [ligand] (M) -6) was 9.87 percentage of WT and 8.25 percentage of WT and -4.25 percentage of WT. The “[35S]GTPγS binding” value (CB2R-V261^6.51L; log [ligand] (M) -7) was 4.21 percentage of WT and 12.98 percentage of WT and 17.88 percentage of WT, the “[35S]GTPγS binding” value (CB2R-V261^6.51L; log [ligand] (M) -8) was 19.13 percentage of WT and 1.74 percentage of WT and -11.50 percentage of WT and the “[35S]GTPγS binding” value (CB2R-V261^6.51L; log [ligand] (M) -9) was 9.08 percentage of WT and 5.95 percentage of WT and 6.43 percentage of WT. For the same compound, the “[35S]GTPγS binding” value (CB2R-V261^6.51L; log [ligand] (M) -10) was 7.31 percentage of WT and 13.50 percentage of WT and 10.09 percentage of WT, the Agonist-mediated activation (CB1R QuadrupleTM1,7 [5]) was 0.9 ± 0.0 fold over its basal and the “percentage specific [3H]CP55,940 binding” value (CB1R-L359^6.51V) was 49.24 percentage and 48.12 percentage and 78.61 percentage. For the same compound, the Emax (CB2R-I110^3.29A) was 27 ± 10%, the “[35S]GTPγS binding” value (CB2R-I110^3.29A; log [ligand] (M) -5) was 7.61 percentage of WT and 53.50 percentage of WT and 22.50 percentage of WT and 24.96 percentage of WT and the “[35S]GTPγS binding” value (CB2R-I110^3.29A; log [ligand] (M) -6) was -2.63 percentage of WT and 15.83 percentage of WT and -2.10 percentage of WT and 11.35 percentage of WT. The “[35S]GTPγS binding” value (CB2R-I110^3.29A; log [ligand] (M) -7) was -21.19 percentage of WT and 26.20 percentage of WT and -0.60 percentage of WT and -1.65 percentage of WT, the “[35S]GTPγS binding” value (CB2R-I110^3.29A; log [ligand] (M) -8) was -20.10 percentage of WT and 21.60 percentage of WT and -13.80 percentage of WT and -17.12 percentage of WT and the “[35S]GTPγS binding” value (CB2R-I110^3.29A; log [ligand] (M) -9) was -21.53 percentage of WT and -16.40 percentage of WT and -20.30 percentage of WT and -26.64 percentage of WT. For the same compound, the “[35S]GTPγS binding” value (CB2R-I110^3.29A; log [ligand] (M) -10) was -16.86 percentage of WT and 2.60 percentage of WT and -15.20 percentage of WT and -22.40 percentage of WT, the Emax (CB2R-F117^3.36A) was 5 ± 11% and the “[35S]GTPγS binding” value (CB2R-F117^3.36A; F1173.36A, log [ligand] (M) -5, individual replicates) was -12.18 percentage of WT and 25.21 percentage of WT and 1.54 percentage of WT. For the same compound, the “Displacement (%) of [3H]CP55,940” value (CB1R-H270^ECL2L [6]) was 46 ± 3%, the “percentage specific [3H]CP55,940 binding” value (CB1R-H270^ECL2L [6]) was 48.81 percentage and 55.24 percentage and 57.51 percentage and the “Displacement (%) of [3H]CP55,940” value (CB1R I267ECL2L [7]) was -7 ± 19%. The “percentage specific [3H]CP55,940 binding” value (CB1R I267ECL2L [7]) was 143.22 percentage and 82.61 percentage and 94.20 percentage, the “Displacement (%) of [3H]CP55,940” value (CB1R QuadrupleTM1,7 [8]) was -13 ± 22% and the “percentage specific [3H]CP55,940 binding” value (CB1R QuadrupleTM1,7 [8]) was 134.56 percentage and 68.97 percentage and 134.64 percentage. The Agonist-mediated activation (CB1R D266ECL2E [9]) was 0.8 ± 0.1 fold over its basal, the “Displacement (%) of [3H]CP55,940” value (hCB1R WT [10]) was 6 ± 7% and the “percentage specific [3H]CP55,940 binding” value (hCB1R WT [10]) was 78.66 percentage and 99.84 percentage and 102.02 percentage. The Emax (CB2R WT; maximum effect at 10 µM compared to WT (Suppl. Table 6)) was 105 ± 3%, the Emax (CB2R WT; maximum effect compared to CP55,940) was 91 ± 8% and the “[35S]GTPγS binding, percentage of WT” value (CB2R WT; WT, log [ligand] (M) -10, individual replicates) was 12.69 percentage of WT and 0.12 percentage of WT and -18.99 percentage of WT and 12.94 percentage of WT and 1.90 percentage of WT and -10.30 percentage of WT and -18.00 percentage of WT and 0.09 percentage of WT and 9.81 percentage of WT and 3.21 percentage of WT. The “[35S]GTPγS binding, percentage of CP55,940” value (CB2R WT; log [agonist] (M) -5, individual replicates) was 84.84% and 81.20% and 107.18%, the “[35S]GTPγS binding, percentage of CP55,940” value (CB2R WT; log [agonist] (M) -6, individual replicates) was 42.88% and 70.07% and 64.55% and the “[35S]GTPγS binding, percentage of CP55,940” value (CB2R WT; log [agonist] (M) -7, individual replicates) was 59.80% and 30.89% and 31.02%. The “[35S]GTPγS binding, percentage of CP55,940” value (CB2R WT; log [agonist] (M) -8, individual replicates) was 26.43% and 5.08% and 10.60%, the “[35S]GTPγS binding, percentage of CP55,940” value (CB2R WT; log [agonist] (M) -9, individual replicates) was -10.38% and -5.63% and -15.53% and the “[35S]GTPγS binding, percentage of CP55,940” value (CB2R WT; log [agonist] (M) -10, individual replicates) was 1.23% and -8.38% and 14.06%. It also gave an Emax (CB2R-L182^ECL2I) of 10 ± 7% and an Emax (CB2R-L185^ECL2H) of 146 ± 8%.
